{"source": "paper PMC13242511", "about": "“Disrupting Notch signalling by a small molecule inhibiting dihydroorotate dehydrogenase activity” (Scientific Reports, 2026)", "format_in_all_cases": "cell-based", "key": {"NOTCH1": {"tested_on": "NOTCH1", "experiment": "Western blot analysis of S3-cleaved NOTCH1 (a-N1-V1744)", "details": "Western blot quantification, Supplemental Figure 4K", "procedure": "Cells were washed in ice-cold PBS and incubated for 30 min on ice with RIPA cell lysis buffer (Thermofisher, cat #89900) containing protease and phosphatase inhibitors (Thermofisher, cat #78442), scraped off and homogenized using a 25G syringe, and subsequently centrifugated for 10 min at > 13,000xg. […] After electrophoresis, gels were placed directly onto a TransBlot Turbo PVDF or nitrocellulose membrane (Bio-rad, cat #1704157 and cat #1704159) and transferred using the “HIGH MW” protocol (Bio-Rad). Subsequently, membranes were blocked for 1 h at room temperature using Clear Milk Blocking Buffer (ThermoFisher, cat #37587) supplemented with 0.1% Tween20 (Sigma-Aldrich, cat #P1379). Detection of antibody binding was performed by using Clarity Western ECL-Substrate (Bio-rad, cat #1705060S). Beta-Actin protein signals were used as a loading control. Western blot membranes were in some experiments stripped after development (indicated in the figure in each respective case) by washing the membranes twice for 10 min in PBS, followed by incubation in membranes in western blot stripping buffer (ThermoFisher, cat #21059) for 30 min at room temperature and gentle agitation. Stripped membranes were washed twice with PBS and incubated for 30 min in blocking buffer before incubation with primary antibody. A list of all antibodies used in this study is provided in Supplemental Table 6. Uncropped western blot images are provided in […]. Protein expression levels of western blot bands were quantified using Fiji (V.2.16) with beta-Actin signals for normalisation (Supplemental Table 8). Uncropped western blot images are provided in Supplemental Fig. 10."}, "[1]": {"tested_on": "Notch downstream genes in tumour cell lines", "experiment": "Three dose response gene expression analysis (qRT-PCR), panel of cell lines", "design": "key to gene expression: + indicates that the compound had an effect; -: − indicates that there was no significant effect in the respective assay", "details": "summary Fig. 8E", "procedure": "(§1) Total RNA from cell lines was isolated using the RNeasy Mini kit (cat #74104, Qiagen), according to the manufacturer’s instructions. qRT-PCR was performed as described elsewhere[51] with some minor modifications: RNA was reverse transcribed to cDNA using iScript Reverse Transcription Supermix (cat # 1708841, Bio-rad). cDNA was then diluted 1:5 in nuclease free H20. qRT-PCR was performed on a C1000 Touch thermal cycler (Bio-rad) and gene expression was detected with SsoAdvanced Universal SYBR Green Supermix (cat # 1725274, Bio-rad). Gene expression was determined by normalizing to GAPDH mRNA expression levels and fold expression change was calculated using the ΔΔCT method (ΔΔCT = ΔCt sample − Δct control). Primers used in qPCR are shown in Supplemental Table 9.\n(§2) Adherent breast cancer cells were seeded in 24-well cell culture plates (ThermoFisher, Nunc, Delta surface, cat #144530) and T-ALL cells growing in suspension (Jurkat, RPMI-8402) were seeded in non-adherent 24-well plates (ThermoFisher, Nunc, cat […]). 60.000 cells were seeded and treated with 0.1, 1 and 10 µM of each compound. […] Cells were harvested 24 h post treatment and RNA isolation and gene expression analysis (qRT-PCR) was performed as described above."}, "C2C12 cells": {"tested_on": "C2C12 cells", "experiment": "C2C12 myogenic assay", "design": "key to myogenic assay: + indicates that the compound had an effect; -: − indicates that there was no significant effect in the respective assay; key to mean fusion index: ratio of nuclei fused per area to total nuclei in field", "text": "To corroborate their status as Notch inhibitors, we tested four of the five compounds (A, C, D, E) in an orthogonal assay for Notch function. Notch signalling plays an important role in myogenic differentiation, and blocking Notch signalling promotes myogenic differentiation in the myoblast cell line C2C12[27] (Fig. 5A). C2C12 cells can be maintained as myoblasts but upon serum starvation spontaneously differentiate to MYH4-positive multinucleated myotubes, a process which is accelerated by Notch blockade.\n8000 C2C12 cells were seeded on gelatin (0.1%, Sigma-Aldrich, cat #G2500) coated cover slides (BD Bioscience) and cultivated in proliferation medium. For gelatin coating, 8-well cover slide chambers (BD Bioscience) were incubated for 60 min with 0.1% gelatin in PBS. The remaining liquid was aspirated, and gelatin was allowed to dry for 24 h. Cover slides were stored at 4 °C until use. Upon reaching 85% confluence cell culture medium was exchanged to differentiation medium to enhance differentiation into myocytes/myotubes. Cells were then treated with 10 µM of the respective compound for five days and DMSO-treated cells served as a base-line control. Next, cells were washed with 1 × cold PBS (ThermoFisher, cat #10010023) fixed with 4% paraformaldehyde (PFA, Sigma-Aldrich, cat #1.00496) in PBS for 10 min at room temperature and washed again with 1 × PBS. Fixed cells were either stored at 4 °C in PBS or directly processed for immunocytochemistry staining: For immunocytochemistry, cells were permeabilized for 10 min in 0.1% TritonX-100 / PBS, then washed in PBS and unspecific bindings sites were blocked in protein free blocking solution (DAKO, cat # × 0909) for 30 min at room temperature, followed by two times washing in PBS. Then, cells were incubated with primary antibody MYH4 (ThermoFisher) in blocking solution and 0.1% TritonX-100 in PBS for 1 h at room temperature. Next, cells were washed three times in PBS and incubated with secondary Alexa fluorophore coupled antibody (Invitrogen) in a 1:400 dilution. Labeling of F-actin filaments was conducted by phalloidin-TRITC (Sigma-Aldrich, cat # P1951) in a 1:2500 dilution. Cells were washed three times in PBS and incubated with DAPI (BD Bioscience cat # 564907) for 5 min at room temperature to stain DNA/nuclei. Finally, slides were fixed with mounting medium (ProLong Antifade mounting medium, ThermoFisher, cat #P36934). Bright field and immunocytochemistry images were taken using the SP8 LSM (Leica) at different magnifications and images were recorded as Z-stacks. Images were processed using the FijI (ImageJ) software. As controls, wells with and without differentiation medium were also stained to set the baseline and contrast the differences and stainings of cells with only secondary antibodies were used as negative controls to assess cross-reactivity and background staining. For calculating the MYH4 median fluorescence intensity (MFI) images have been converted into 8-bit greyscale and a standard color threshold was applied (ImageJ). Next, MFI signals per area were measured using ImageJ and divided by the median background intensity (MBI). The nuclei fusion index was calculated as the ratio of nuclei fused per area divided by the total number of nuclei in the field. A minimum of three images has been recorded for the calculations, and two replicate experiments were conducted. For calculations of MFI and fusion index see Supplemental Table 5."}, "[2]": {"tested_on": "T-ALL cells (Jurkat, RPMI-8402)", "experiment": "Three dose response gene expression analysis (qRT-PCR)", "details": "T-ALL cells; 0.1, 1 and 10 µM, 24 h", "procedure": "as §1, §2"}, "MDA-MB-231 cells": {"tested_on": "MDA-MB-231 cells", "experiment": "Three dose response gene expression analysis (qRT-PCR)", "details": "0.1, 1 and 10 µM, 24 h", "procedure": "as §1, §2"}, "[3]": {"details": "10 µM, five days, Fig. 5, equals mean of the two '% of control' values of the 4th table"}}, "note": "Where “and” joins values, the source holds several entries; their conditions need not be identical. Equal entries are not always repeated."}
{"smiles": "Cc1nn(-c2nc3ccccc3s2)c(O)c1C1OC(=O)c2ccccc21", "note": "(stereo not shown) [compound E]", "values": [{"measurement": "V1744 (activated N1) band intensity", "setting": "NOTCH1", "value": 44303.5}, {"measurement": "V1744 normalised to beta-actin signals", "setting": "NOTCH1", "value": 1.9}, {"measurement": "V1744, DMSO as reference", "setting": "NOTCH1; DMSO = 1", "value": 1.451}, {"measurement": "gene expression", "setting": "[1]", "value": "+"}, {"measurement": "expression of the differentiation marker MYH4", "setting": "C2C12 cells; 10 µM, five days", "value": "elevated expression"}, {"measurement": "mean MFI in % of control", "setting": "C2C12 cells; 10 µM, five days, DMSO ctrl = 100, experiments #1 and #2", "value": "561.7 % of control and 394.0 % of control"}, {"measurement": "MYH4 (MFI)", "setting": "C2C12 cells; [3]", "value": 477.8}, {"measurement": "fusion index, % of DMSO control", "setting": "C2C12 cells; [3]", "value": 290.1}, {"measurement": "mean MFI", "setting": "C2C12 cells; 10 µM, five days, MYH4, experiments #1 and #2", "value": "6.9 and 6.2"}, {"measurement": "ratio MFI/MBI", "setting": "C2C12 cells; 10 µM, five days, MYH4, single images, experiments #1 and #2", "value": "6.3 and 6.7 and 7.6 and 5.1 and 6.8"}, {"measurement": "mean fusion index", "setting": "C2C12 cells; 10 µM, five days, experiments #1 and #2", "value": "6.2 and 7.6"}, {"measurement": "ratio nuclei %", "setting": "C2C12 cells; 10 µM, five days, single images, experiments #1 and #2", "value": "5.9% and 6.4% and 6.2% and 7.9% and 6.8% and 8.0%"}, {"measurement": "myogenic assay", "setting": "C2C12 cells; summary Fig. 8E", "value": "+"}, {"measurement": "HES1 and c-MYC expression", "setting": "[2]", "value": "dose-dependent downregulation"}, {"measurement": "HES1 expression", "setting": "MDA-MB-231 cells", "value": "downregulated"}, {"measurement": "transcript levels of the Notch ligand Jagged1", "setting": "MDA-MB-231 cells", "value": "reduced"}]}
